The test deals with carrageenan-induced thermal hyperalgesia. In words: Acute model of carrageenan-induced thermal hyperalgesia (hotbox assay). It is filed as in vivo. The settings on record: 100 micromole/kg intraperitoneally, 90 minutes after carrageenan, tested 30 minutes after dosing. The protocol: To assess the effectiveness of representative compounds of the invention against acute model inflammatory pain, animals can be tested in an acute model of carrageenan-induced thermal hyperalgesia (see for example, Honore, et al. Behavioural Brain Research (2006) vol. 167 pp. 355-364; Porreca, et al. Journal of Pharmacology and Experimental Therapeutics (2006) vol. 318 pp. 195-205). Carrageenan is injected into the test paw of the animal, and after 90 minutes, the test drug is administered by intraperitoneal dosing; the effect on thermal hyperalgesia is assessed in a hotbox assay which is done 30 minutes after the intraperitoneal dosing of the test drug. The MPE (maximal percent effect) is reported by comparison to the control paw (not injected with carrageenan), MPE being expressed as 100 times the withdrawal latency of the carrageenan injected paw (in seconds) divided by the withdrawal latency of the control (not injected with carrageenan) paw.

The results in this text go back to patent publication US8436005B2, “Macrocyclic pyrimidine derivatives” (Abbott Laboratories, priority 2008, dated 2013).

As to `Nc1nc2c(c(N3CCNCC3)n1)CCCCC2c1ccccc1` (centres unmarked) [Example 19, 9-phenyl-4-(piperazin-1-yl)-6,7,8,9-tetrahydro-5H-cyclohepta[d]pyrimidin-2-amine], the “MPE (maximal percent effect), withdrawal latency of carrageenan injected paw vs control paw” value is on record as 26%.
Under `Nc1nc2c(c(N3C[C@H]4CCCN[C@H]4C3)n1)CCCCC2c1ccccc1` (stereo partly drawn) [Example 21, 9-phenyl-4-((4aR,7aR)-tetrahydro-1H-pyrrolo[3,4-b]pyridin-6(2H,7H,7aH)-yl)-6,7,8,9-tetrahydro-5H-cyclohepta[d]pyrimidin-2-amine] stands 24%.
